According to the NIST ThermoML archive (doi:10.1021/je050006+):
± gives the expanded uncertainty stated by the source.

Conditions: 101.33 kPa, Liquid

Row | Compound | mass density (283.15 K) [kg/m3] | speed of sound (283.15 K) [m/s] | mass density (298.15 K) [kg/m3] | speed of sound (298.15 K) [m/s] | mass density (313.15 K) [kg/m3] | speed of sound (313.15 K) [m/s]
1 | CCCO [propan-1-ol] | 811.48 ± 0.59 | 1257.9 ± 3.5 | 799.66 ± 0.6 | 1206 ± 3.4 | 787.76 ± 0.61 | 1155.1 ± 3.3
2 | CCO [ethanol] | 797.94 ± 0.45 | 1195.2 ± 3.2 | 785.12 ± 0.47 | 1143.3 ± 3.1 | 772.53 ± 0.49 | 1093.8 ± 3
3 | C=C1CCC2CC1C2(C)C (stereo not drawn) [β-pinene] | 879.07 ± 0.55 | 1356.8 ± 3.7 | 866.97 ± 0.55 | 1298.7 ± 3.5 | 855.5 ± 0.56 | 1232.8 ± 3.4
